From ChEMBL document CHEMBL5046282, “Discovery of Brain-Penetrant Glucosylceramide Synthase Inhibitors with a Novel Pharmacophore” (J Med Chem, 2022)
In brackets after ≈: the same amount, converted by molar mass. Activity calls are given as the source filed them. No cut-off for these calls is given here.

Key:
[1] = target: CYP2D6 (Homo sapiens, UniProt P10635); test: Inhibition of CYP2D6 in human liver microsomes using dextromethorphan as substrate at 10 uM in presence of NADPH generating system incubated for 10 mins; assay type: ADME; settings: probe dextromethorphan
[2] = AUC in non-fasted ICR mouse at 5 mg/kg, po by LC-MS/MS analysis; assay type: ADME, organism-based; set-up: dose 5 mg/kg; settings: in vivo
[3] = Kinetic solubility of the compound in JP2 fluid at pH 6.8 by precipitation method; assay type: physicochemical; settings: read-out: Kinetic_solubility
[4] = Unbound drug concentration in brain of non-fasted ICR mouse at 30 mg/kg, po measured after 1 hr by LC-MS/MS analysis; assay type: ADME, organism-based; settings: in vivo
[5] = target: Cav1.2 (Homo sapiens, UniProt Q13936); test: Inhibition of human Cav1.2 expressed in HEK293 cells at 30 uM by automated electrophysiology QPatch HT assay; assay type: toxicity, cell-based; settings: HEK293 cells expressing Cav1.2
[6] = target: T1, Lysosomal acid glucosylceramidase (Homo sapiens, UniProt P04062); test: Inhibition of human recombinant GCase using 4-methylumbelliferyl beta-D-glucopyranoside as substrate incubated for 20 mins by fluorescence-based analysis
T1 sequence (P04062 whole entry): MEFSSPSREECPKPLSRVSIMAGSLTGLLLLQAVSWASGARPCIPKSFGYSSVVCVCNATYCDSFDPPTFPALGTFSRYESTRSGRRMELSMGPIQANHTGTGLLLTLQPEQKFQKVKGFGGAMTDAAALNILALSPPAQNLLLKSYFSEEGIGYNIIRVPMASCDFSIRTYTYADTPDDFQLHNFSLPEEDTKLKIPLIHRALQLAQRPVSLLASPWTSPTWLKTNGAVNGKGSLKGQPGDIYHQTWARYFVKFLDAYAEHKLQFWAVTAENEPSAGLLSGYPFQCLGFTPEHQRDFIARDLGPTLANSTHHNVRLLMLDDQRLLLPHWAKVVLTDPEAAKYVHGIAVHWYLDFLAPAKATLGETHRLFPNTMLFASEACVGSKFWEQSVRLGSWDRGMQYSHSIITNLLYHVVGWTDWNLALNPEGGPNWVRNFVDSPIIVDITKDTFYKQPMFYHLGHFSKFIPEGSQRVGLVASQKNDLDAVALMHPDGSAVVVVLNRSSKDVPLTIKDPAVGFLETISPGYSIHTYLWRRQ

[7] = Efflux ratio of apparent permeability from basolateral to apical side over apical to basolateral side in dog MDCK-MDR1 cells at 1 uM measured after 1 hr by LC-MS/MS analysis; assay type: ADME, cell-based, Canis lupus familiaris
[8] = Intrinsic clearance in mouse liver microsomes at 1 uM in presence of NADPH generating system assessed per mg protein by LC-MS/MS analysis; assay type: ADME, Microsome; settings: read-out: CLH
[9] = Cardiotoxicity in human iPSC-derived cardiomyocytes assessed as minimum effective concentration required for intracellular calcium transients-mediated proarrhythmic activity by Fluo-4 dye based fluorescence analysis; assay type: toxicity; settings: cardiac muscle cell
[10] = MRT in non-fasted ICR mouse at 0.5 mg/kg, iv by LC-MS/MS analysis; assay type: ADME, organism-based; settings: in vivo
[11] = Oral bioavailability in non-fasted ICR mouse at 5 mg/kg by LC-MS/MS analysis; assay type: ADME, organism-based; settings: in vivo
[12] = target: T2, Ceramide glucosyltransferase (Homo sapiens) (UniProt Q16739); test: Non-competitive inhibition of GCS (unknown origin) using 1 to 70 uM C8-ceramide and 0.1 to 200 uM UDP-glucose as substrate incubated for 1 hr by RapidFire mass spectrometry
T2 sequence (whole entry): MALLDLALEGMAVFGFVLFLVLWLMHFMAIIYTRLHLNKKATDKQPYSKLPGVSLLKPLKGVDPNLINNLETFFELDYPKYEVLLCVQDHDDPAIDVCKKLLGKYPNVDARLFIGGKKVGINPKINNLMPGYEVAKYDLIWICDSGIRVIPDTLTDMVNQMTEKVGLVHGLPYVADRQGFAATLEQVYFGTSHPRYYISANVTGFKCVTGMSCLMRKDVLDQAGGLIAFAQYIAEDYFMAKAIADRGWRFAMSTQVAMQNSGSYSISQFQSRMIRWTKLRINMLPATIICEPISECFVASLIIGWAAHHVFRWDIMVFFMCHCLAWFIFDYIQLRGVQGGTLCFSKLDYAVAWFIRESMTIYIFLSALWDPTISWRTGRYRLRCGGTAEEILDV

[13] = target: T3, Ceramide glucosyltransferase (Homo sapiens, UniProt Q16739); test: Inhibition of human GCS using C8-ceramide and UDP-glucose as substrate incubated for 1 hr by RapidFire mass spectrometry
T3 sequence (Q16739 whole entry): T2 sequence (whole entry)

[14] = target: hERG (Homo sapiens, UniProt Q12809); test: Inhibition of hERG expressed in CHO-K1 cells at 30 uM by automated whole cell patch clamp assay; assay type: toxicity, cell-based; settings: CHO-K1 cells expressing hERG
[15] = 1-Octanol/aqueous buffer partition coefficient, logD of the compound at pH 7.4 by chromatographic method; assay type: physicochemical
[16] = target: Ceramide glucosyltransferase (Homo sapiens, UniProt Q16739); test: Inhibition of GCS in GBA mutant human fibroblasts assessed as reduction in glucosylceramide level incubated for 4 days by RapdiFire-MS/MS analysis; assay type: cell-based; settings: fibroblast
[17] = Ratio of unbound drug concentration in brain to plasma of non-fasted ICR mouse at 30 mg/kg, po measured after 1 hr by LC-MS/MS analysis; assay type: ADME, organism-based; settings: read-out: K(p,uu,brain)
[18] = Toxicity in Sprague-Dawley rat assessed as change in body weight at 30 to 300 mg/kg, po administered once daily for 3 days; assay type: organism-based; settings: in vivo, 72 h, dose 30-300 mg/kg, time 3 day
[19] = Cardiotoxicity in human iPSC-derived cardiomyocytes assessed as induction of proarrhythmic activity at 10 uM by Fluo-4 dye based fluorescence analysis; assay type: toxicity; settings: cardiac muscle cell
[20] = system: Mus musculus; test: In vivo inhibition of GCS activity in po dosed C57BL/6J mouse assessed as reduction in GlcCer level in plasma measured after 6 hrs; assay type: functional, organism-based; settings: dose 30-300 mg/kg
[21] = system: Mus musculus; test: In vivo inhibition of GCS activity in po dosed C57BL/6J mouse assessed as reduction in GlcCer level in cerebral cortex measured after 6 hrs; assay type: functional, organism-based; settings: dose 30-300 mg/kg
[22] = target: Sodium-dependent serotonin transporter (Homo sapiens, UniProt P31645); test: Inhibition of human SERT; assay type: toxicity
[23] = Cmax in non-fasted ICR mouse at 5 mg/kg, po by LC-MS/MS analysis; assay type: ADME, organism-based; set-up: route oral, dose 5 mg/kg; settings: in vivo

Chain of Cav1.2 (Q13936 whole entry): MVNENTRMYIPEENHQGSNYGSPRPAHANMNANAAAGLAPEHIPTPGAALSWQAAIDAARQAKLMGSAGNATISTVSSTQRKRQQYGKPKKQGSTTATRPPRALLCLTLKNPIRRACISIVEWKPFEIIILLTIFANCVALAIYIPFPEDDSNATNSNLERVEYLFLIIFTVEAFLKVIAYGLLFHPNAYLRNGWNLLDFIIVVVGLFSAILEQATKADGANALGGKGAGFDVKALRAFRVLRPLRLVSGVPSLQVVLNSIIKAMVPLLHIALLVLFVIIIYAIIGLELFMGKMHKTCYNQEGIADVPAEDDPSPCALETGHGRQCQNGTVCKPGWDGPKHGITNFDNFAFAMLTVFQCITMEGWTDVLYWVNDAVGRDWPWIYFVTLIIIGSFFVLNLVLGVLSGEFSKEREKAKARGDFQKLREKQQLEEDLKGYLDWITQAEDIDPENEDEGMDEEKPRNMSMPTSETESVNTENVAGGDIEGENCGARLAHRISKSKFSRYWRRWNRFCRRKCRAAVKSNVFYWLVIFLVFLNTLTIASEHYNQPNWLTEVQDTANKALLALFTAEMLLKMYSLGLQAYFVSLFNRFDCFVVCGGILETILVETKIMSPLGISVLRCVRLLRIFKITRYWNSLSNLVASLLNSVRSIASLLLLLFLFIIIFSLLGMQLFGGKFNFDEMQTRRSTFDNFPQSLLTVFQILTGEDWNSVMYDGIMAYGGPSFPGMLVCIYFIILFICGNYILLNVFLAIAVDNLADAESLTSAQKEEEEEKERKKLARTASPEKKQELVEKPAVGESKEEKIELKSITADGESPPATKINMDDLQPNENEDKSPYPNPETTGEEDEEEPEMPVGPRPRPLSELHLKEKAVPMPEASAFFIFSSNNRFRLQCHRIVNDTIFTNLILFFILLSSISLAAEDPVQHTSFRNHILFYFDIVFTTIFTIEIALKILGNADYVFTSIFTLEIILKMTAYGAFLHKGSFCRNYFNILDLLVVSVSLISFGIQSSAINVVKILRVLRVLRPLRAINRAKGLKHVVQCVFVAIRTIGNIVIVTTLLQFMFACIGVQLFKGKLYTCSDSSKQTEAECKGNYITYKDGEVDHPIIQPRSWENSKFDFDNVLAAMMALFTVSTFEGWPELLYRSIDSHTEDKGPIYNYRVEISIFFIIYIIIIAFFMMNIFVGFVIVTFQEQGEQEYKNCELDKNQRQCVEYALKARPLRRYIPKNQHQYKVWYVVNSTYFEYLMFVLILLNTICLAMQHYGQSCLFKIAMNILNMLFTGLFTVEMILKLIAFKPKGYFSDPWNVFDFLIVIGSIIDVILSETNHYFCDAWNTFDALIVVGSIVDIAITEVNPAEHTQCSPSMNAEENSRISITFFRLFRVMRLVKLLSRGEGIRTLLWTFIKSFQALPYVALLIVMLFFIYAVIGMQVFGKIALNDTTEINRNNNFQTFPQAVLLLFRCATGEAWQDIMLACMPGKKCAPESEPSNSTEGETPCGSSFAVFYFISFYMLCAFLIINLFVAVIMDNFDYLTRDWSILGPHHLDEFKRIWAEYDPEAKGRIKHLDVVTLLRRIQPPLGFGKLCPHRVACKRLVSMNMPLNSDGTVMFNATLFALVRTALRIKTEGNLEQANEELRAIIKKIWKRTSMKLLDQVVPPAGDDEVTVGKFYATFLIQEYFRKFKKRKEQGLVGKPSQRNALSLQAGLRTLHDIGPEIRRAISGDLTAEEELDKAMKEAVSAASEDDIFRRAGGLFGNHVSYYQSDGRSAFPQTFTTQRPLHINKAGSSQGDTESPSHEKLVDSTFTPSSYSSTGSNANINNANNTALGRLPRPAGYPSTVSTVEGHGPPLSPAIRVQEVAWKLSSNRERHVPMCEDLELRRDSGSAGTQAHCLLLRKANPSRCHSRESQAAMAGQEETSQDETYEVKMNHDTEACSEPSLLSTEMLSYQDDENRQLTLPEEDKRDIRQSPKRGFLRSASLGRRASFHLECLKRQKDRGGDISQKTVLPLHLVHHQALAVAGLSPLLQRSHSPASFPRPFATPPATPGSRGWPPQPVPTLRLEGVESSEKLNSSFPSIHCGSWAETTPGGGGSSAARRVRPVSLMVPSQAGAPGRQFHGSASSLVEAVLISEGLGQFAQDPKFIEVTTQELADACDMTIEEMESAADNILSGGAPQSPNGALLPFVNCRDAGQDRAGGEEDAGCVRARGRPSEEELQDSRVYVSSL
Chain of hERG (Q12809 whole entry): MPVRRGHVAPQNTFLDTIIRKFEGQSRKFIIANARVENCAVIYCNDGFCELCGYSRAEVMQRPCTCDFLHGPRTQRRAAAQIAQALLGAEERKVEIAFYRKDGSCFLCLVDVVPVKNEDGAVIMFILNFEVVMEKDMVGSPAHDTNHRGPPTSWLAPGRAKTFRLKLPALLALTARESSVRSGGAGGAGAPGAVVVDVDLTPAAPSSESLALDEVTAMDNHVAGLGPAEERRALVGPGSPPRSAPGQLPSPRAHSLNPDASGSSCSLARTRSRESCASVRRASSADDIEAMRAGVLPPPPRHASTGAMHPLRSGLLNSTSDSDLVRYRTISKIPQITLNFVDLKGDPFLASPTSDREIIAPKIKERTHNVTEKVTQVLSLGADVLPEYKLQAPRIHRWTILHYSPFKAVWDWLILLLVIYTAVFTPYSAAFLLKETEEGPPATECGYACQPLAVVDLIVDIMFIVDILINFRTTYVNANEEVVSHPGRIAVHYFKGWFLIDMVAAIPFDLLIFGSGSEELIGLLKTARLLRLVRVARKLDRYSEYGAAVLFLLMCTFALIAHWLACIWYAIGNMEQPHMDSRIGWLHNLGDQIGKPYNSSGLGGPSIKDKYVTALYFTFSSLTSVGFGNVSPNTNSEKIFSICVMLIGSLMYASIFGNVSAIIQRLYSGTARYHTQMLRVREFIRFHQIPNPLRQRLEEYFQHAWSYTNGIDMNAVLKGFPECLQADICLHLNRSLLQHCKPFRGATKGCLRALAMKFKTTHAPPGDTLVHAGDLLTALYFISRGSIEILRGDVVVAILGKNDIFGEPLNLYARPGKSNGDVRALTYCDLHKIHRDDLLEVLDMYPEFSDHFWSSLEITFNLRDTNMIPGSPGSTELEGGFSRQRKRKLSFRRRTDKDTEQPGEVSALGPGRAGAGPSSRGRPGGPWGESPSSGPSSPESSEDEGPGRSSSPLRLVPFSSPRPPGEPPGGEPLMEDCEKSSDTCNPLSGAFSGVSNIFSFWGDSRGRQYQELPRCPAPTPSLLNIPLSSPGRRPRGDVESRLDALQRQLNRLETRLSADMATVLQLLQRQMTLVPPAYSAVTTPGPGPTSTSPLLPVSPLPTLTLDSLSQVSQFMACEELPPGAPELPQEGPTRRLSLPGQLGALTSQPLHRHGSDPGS
Chain of Sodium-dependent serotonin transporter (P31645 whole entry): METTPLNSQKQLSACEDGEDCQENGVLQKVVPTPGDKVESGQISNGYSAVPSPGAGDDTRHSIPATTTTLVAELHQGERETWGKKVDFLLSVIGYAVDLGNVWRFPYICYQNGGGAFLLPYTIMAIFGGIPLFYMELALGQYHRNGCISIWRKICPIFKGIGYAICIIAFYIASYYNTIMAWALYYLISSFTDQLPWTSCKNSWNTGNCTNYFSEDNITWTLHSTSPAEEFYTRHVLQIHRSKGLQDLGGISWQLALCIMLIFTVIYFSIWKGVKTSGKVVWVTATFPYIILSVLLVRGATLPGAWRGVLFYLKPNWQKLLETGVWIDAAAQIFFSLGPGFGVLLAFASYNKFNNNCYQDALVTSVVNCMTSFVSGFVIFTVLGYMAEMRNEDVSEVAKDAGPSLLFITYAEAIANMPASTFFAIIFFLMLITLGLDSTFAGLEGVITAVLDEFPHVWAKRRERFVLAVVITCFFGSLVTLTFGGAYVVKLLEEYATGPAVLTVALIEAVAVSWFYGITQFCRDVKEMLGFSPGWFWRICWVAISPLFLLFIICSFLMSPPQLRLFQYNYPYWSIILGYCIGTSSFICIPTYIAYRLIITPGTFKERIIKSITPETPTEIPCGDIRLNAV
Chain of CYP2D6 (P10635 whole entry): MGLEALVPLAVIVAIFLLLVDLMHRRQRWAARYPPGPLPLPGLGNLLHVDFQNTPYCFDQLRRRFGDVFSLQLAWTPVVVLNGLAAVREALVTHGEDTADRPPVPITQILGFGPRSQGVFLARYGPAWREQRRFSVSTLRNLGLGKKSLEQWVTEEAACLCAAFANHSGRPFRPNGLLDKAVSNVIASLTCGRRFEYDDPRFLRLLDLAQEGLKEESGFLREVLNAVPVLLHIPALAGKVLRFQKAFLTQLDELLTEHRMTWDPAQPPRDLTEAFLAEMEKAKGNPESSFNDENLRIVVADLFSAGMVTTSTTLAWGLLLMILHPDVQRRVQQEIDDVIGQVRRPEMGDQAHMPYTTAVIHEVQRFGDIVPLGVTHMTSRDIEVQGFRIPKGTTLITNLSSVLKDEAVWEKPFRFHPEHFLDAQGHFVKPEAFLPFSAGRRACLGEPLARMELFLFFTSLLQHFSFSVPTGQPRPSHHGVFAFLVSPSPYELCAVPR

- inhibition at 10 min, 10 µM [1]: 15.6%
- AUC [2]: 829 ng·h/mL
- solubility kinetic [3]: 45 µg/mL (≈ 101 µM)
- Drug uptake(free) [4]: 0.21 µM
- EC50 [6]: > 300 µM
- efflux ratio at 1 h, 1 µM [7]: 8.8
- microsomal CLint at 1 µM [8]: 1 µL/min/mg
- MRT [10]: 1.03 h
- bioavailability [11]: 31%
- inhibition [12]: Active
- IC50 [13]: 15 nM
- chromatographic logD [15]: 2.42
- EC50 [16]: 4.4 nM
- Kp uu at 1 h [17]: 0.26
- Cmax [23]: 416 ng/mL
SMILES: CC(C)(O)c1ccc(NC(=O)c2ccnn(-c3ccccc3OCC(F)(F)F)c2=O)cc1
- inhibition at 30 µM [5]: 7.3%
- MEC [9]: > 10 µM
- inhibition at 30 µM [14]: 8%
- Activity [18]: Non-Toxic
- Activity [19]: Non-Toxic
- inhibition [20]: Dose-Dependent Effect
- inhibition [21]: Dose-Dependent Effect
- IC50 [22]: > 10 µM
